# Target: T1, human cloned 5-HT6 receptors (Homo sapiens, UniProt P50406)
# T1 construct: expressed in transfected cells; host or cells: Hela cells
# Assay: 5-HT6 binding affinity, [3H]-LSD displacement in membranes of Hela cells
# Settings: not given
# Protocol: The affinity of test compounds for the serotonin 5-HT6 receptor is evaluated in the following manner. Cultured Hela cells expressing human cloned 5-HT6 receptors are harvested and centrifuged at low speed (1,000×g) for 10.0 min to remove the culture media. The harvested cells are suspended in half volume of fresh physiological phosphate buffered saline solution and recentrifuged at the same speed. This operation is repeated. The collected cells are then homogenized in ten volumes of 50 mM Tris.HCl (pH 7.4) and 0.5 mM EDTA. The homogenate is centrifuged at 40,000×g for 30.0 min and the precipitate is collected. The obtained pellet is resuspended in 10 volumes of Tris.HCl buffer and recentrifuged at the same speed. The final pellet is suspended in a small volume of Tris.HCl buffer and the tissue protein content is determined in aliquots of 10-25 μl volumes. Bovine Serum Albumin is used as the standard in the protein determination according to the method described in Lowry et al., J. Biol. Chem., 193:265 (1951). The volume of the suspended cell membranes is adjusted to give a tissue protein concentration of 1.0 mg/ml of suspension. The prepared membrane suspension (10 times concentrated) is aliquoted in 1.0 ml volumes and stored at −70° C. until used in subsequent binding experiments.
# The reaction is allowed to proceed in the dark for 120 min at room temperature, at which time, the bound ligand-receptor complex is filtered off on a 96 well unifilter with a Packard Filtermate® 196 Harvester. The bound complex caught on the filter disk is allowed to air dry and the radioactivity is measured in a Packard TopCount® equipped with six photomultiplier detectors, after the addition of 40.0 μl Microscint®-20 scintillant to each shallow well. The unifilter plate is heat-sealed and counted in a PackardTopCount® with a tritium efficiency of 31.0%.
# Specific binding to the 5-HT6 receptor is defined as the total radioactivity bound less the amount bound in the presence of 10.0 μM unlabeled methiothepin. Binding in the presence of varying concentrations of test compound is expressed as a percentage of specific binding in the absence of test compound. The results are plotted as logit % bound versus log concentration of test compound. Nonlinear regression analysis of data points with a computer assisted program Prism® yields both the IC50 and the Ki values of test compounds with 95% confidence limits.
# The amount of displacement by the test compound is given in percent (%) inhibition and is derived from the following equation: [formula] where B0 is the amount of CPM bound in the presence of the testing agent. NSB represents the CPM bound in the presence of a saturating concentration of a displacer and TB represents the total amount of CPM bound at zero (0) concentration of test compound.
# Alternatively, a linear regression line of decline of data points is plotted, from which the IC50 value can be read off and the Ki value determined by solving the following equation: [formula] where L is the concentration of the radioactive ligand used and KD is the dissociation constant of the ligand for the receptor, both expressed in nM.
# T1 sequence (P50406 whole entry): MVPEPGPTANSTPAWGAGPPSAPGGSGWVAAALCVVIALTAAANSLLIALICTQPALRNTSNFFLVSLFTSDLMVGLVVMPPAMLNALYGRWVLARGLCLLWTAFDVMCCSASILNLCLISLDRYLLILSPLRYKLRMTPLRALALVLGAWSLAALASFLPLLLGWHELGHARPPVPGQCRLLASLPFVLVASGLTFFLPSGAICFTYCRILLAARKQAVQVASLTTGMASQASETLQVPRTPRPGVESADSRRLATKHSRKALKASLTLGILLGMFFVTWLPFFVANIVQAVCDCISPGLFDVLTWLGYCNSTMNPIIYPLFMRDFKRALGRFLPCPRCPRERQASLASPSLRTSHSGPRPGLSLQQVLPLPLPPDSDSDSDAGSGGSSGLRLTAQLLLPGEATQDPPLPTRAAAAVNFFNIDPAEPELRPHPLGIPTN
row,Ki [nM],Compound
1,26,"CC(=NNC(=N)N)c1cn(S(=O)(=O)c2cccc(Br)c2)c2ccccc12 [Example 32, 2-(1-{1-[(3-bromophenyl)sulfonyl]-1H-indol-3-yl}ethylidene)hydrazinecarboximidamide]"
2,15,CC(=NNC(=N)N)c1cn(S(=O)(=O)c2cccc3nonc23)c2ccccc12 [Example 25]
3,101,"CCC(=NNC(=N)N)c1cn(S(=O)(=O)c2ccc3ccccc3c2)c2ccc(Cl)cc12 [Example 122, 2-{1-[5-chloro-1-(2-naphthylsulfonyl)-1H-indol-3-yl]propylidene}hydrazinecarboximidamide]"
4,18,"CC(=NNC(=N)N)c1cn(S(C)(=O)=O)c2cc(F)ccc12 [Example 100, 2-{1-[6-fluoro-1-(methylsulfonyl)-1H-indol-3-yl]ethylidene}hydrazinecarboximidamide]"
5,2,"CC(=NNC(=N)N)c1cn(S(=O)(=O)c2ccc(N)cc2)c2ccccc12 [Example 23, 2-(1-{1-[(4-aminophenyl)sulfonyl]-1H-indol-3-yl}ethylidene)hydrazinecarboximidamide]"
6,46,"CC(=NNC(=N)N)c1cn(S(=O)(=O)c2cn(C)cn2)c2ccccc12 [Example 47, 2-(1-{1-[(1-methyl-1H-imidazol-4-yl)sulfonyl]-1H-indol-3-yl}ethylidene)hydrazinecarboximidamide]"
7,8,"CC(=NNC(=N)N)c1cn(S(=O)(=O)c2sc(N)nc2C)c2ccccc12 [Example 22, 2-(1-{1-[(2-amino-4-methyl-1,3-thiazol-5-yl)sulfonyl]-1H-indol-3-yl}ethylidene)hydrazinecarboximidamide]"

# Same assay, conditions: test compound dose 10 nM; [3H]-LSD 3.0 nM
row,inhibition at 0.01 µM [%],Compound
1,41.1,"CS(=O)(=O)n1cc(C(=NNC(=N)N)C2CC2)c2ccc(F)cc21 [Example 102, 2-{cyclopropyl[6-fluoro-1-(methylsulfonyl)-1H-indol-3-yl]methylidene}hydrazinecarboximidamide]"
2,52,"CC(=NNC(=N)N)c1cn(S(=O)(=O)c2ccccc2)c2ccc(I)cc12 [Example 17, 2-{1-[5-iodo-1-(phenylsulfonyl)-1H-indol-3-yl]ethylidene}hydrazinecarboximidamide]"
3,35.1,"N=C(N)NN=C(c1cn(S(=O)(=O)c2ccc3ccccc3c2)c2ccccc12)C1CC1 [Example 66, 2-{cyclopropyl[1-(2-naphthylsulfonyl)-1H-indol-3-yl]methylidene}hydrazinecarboximidamide]"

# Same assay, conditions: test compound dose 100 nM; [3H]-LSD 3.0 nM
row,inhibition at 0.1 µM [%],Compound
1,55,"CC(=NNC(=N)N)c1cn(S(=O)(=O)c2cc(Cl)sc2Cl)c2ccccc12 [Example 41, 2-(1-{1-[(2,5-dichlorothien-3-yl)sulfonyl]-1H-indol-3-yl}ethylidene)hydrazinecarboximidamide]"
2,76.2,"CC(=NNC(=N)N)c1cn(S(=O)(=O)c2cccc(Br)c2)c2ccccc12 [Example 32, 2-(1-{1-[(3-bromophenyl)sulfonyl]-1H-indol-3-yl}ethylidene)hydrazinecarboximidamide]"
3,74,"COc1ccc(S(=O)(=O)n2cc(C(=NNC(=N)N)C3CC3)c3cc(Cl)ccc32)cc1 [Example 80, 2-[{5-chloro-1-[(4-methoxyphenyl)sulfonyl]-1H-indol-3-yl}(cyclopropyl)methylidene]hydrazinecarboximidamide]"
4,79.6,CC(=NNC(=N)N)c1cn(S(=O)(=O)c2cccc3nonc23)c2ccccc12 [Example 25]
5,43.9,"CC(=NNC(=N)N)c1cn(S(=O)(=O)c2ccc(S(C)(=O)=O)cc2)c2ccccc12 [Example 48, 2-[1-(1-{[4-(methylsulfonyl)phenyl]sulfonyl}-1H-indol-3-yl)ethylidene]hydrazinecarboximidamide]"
6,83.8,"CC(=NNC(=N)N)c1cn(S(C)(=O)=O)c2cc(F)ccc12 [Example 100, 2-{1-[6-fluoro-1-(methylsulfonyl)-1H-indol-3-yl]ethylidene}hydrazinecarboximidamide]"
7,92.9,"CC(=NNC(=N)N)c1cn(S(=O)(=O)c2ccc(N)cc2)c2ccccc12 [Example 23, 2-(1-{1-[(4-aminophenyl)sulfonyl]-1H-indol-3-yl}ethylidene)hydrazinecarboximidamide]"
8,81.1,"CC(=NNC(=N)N)c1cn(S(=O)(=O)c2cn(C)cn2)c2ccccc12 [Example 47, 2-(1-{1-[(1-methyl-1H-imidazol-4-yl)sulfonyl]-1H-indol-3-yl}ethylidene)hydrazinecarboximidamide]"
9,83.3,"CC(=NNC(=N)NCCO)c1cn(S(=O)(=O)c2ccccc2)c2ccccc12 [Example 127, N-(2-hydroxyethyl)-2-{1-[1-(phenylsulfonyl)-1H-indol-3-yl]ethylidene}hydrazinecarboximidamide]"
10,84.6,"CCCCS(=O)(=O)n1cc(C(C)=NNC(=N)N)c2cc(Cl)ccc21 [Example 75, 2-{1-[1-(butylsulfonyl)-5-chloro-1H-indol-3-yl]ethylidene}hydrazinecarboximidamide]"
11,62.1,"CC(=NNC(=N)N)c1cn(S(=O)(=O)c2cc(Br)c(Br)s2)c2ccccc12 [Example 39, 2-(1-{1-[(4,5-dibromothien-2-yl)sulfonyl]-1H-indol-3-yl}ethylidene)hydrazinecarboximidamide]"
12,76.3,"COc1ccc2c(c1)c(C=NNC(=N)N)cn2S(=O)(=O)c1ccccc1 [Example 20, 2-{[5-methoxy-1-(phenylsulfonyl)-1H-indol-3-yl]methylidene}hydrazinecarboximidamide]"
13,66.3,"CCCCC(=NNC(=N)N)c1cn(S(=O)(=O)c2ccccc2)c2ccccc12 [Example 67, 2-{1-[1-(phenylsulfonyl)-1H-indol-3-yl]pentylidene}hydrazinecarboximidamide]"
14,81.7,"CC(=NNC(=N)N)c1cn(S(=O)(=O)c2ccccc2)c2ccc(Cl)cc12 [Example 84, 2-{1-[5-chloro-1-(phenylsulfonyl)-1H-indol-3-yl]ethylidene}hydrazinecarboximidamide]"
15,77.9,"CC(=NNC(=N)N)c1cn(S(=O)(=O)c2ccccc2)c2ccc([N+](=O)[O-])cc12 [Example 18, 2-{1-[5-nitro-1-(phenylsulfonyl)-1H-indol-3-yl]ethylidene}hydrazinecarboximidamide]"
16,33.3,"CC(=NNC(=N)N)c1cn(S(=O)(=O)c2cc(Cl)ccc2Cl)c2ccccc12 [Example 40, 2-(1-{1-[(2,5-dichlorophenyl)sulfonyl]-1H-indol-3-yl}ethylidene)hydrazinecarboximidamide]"
17,90.5,"CC(=NNC(=N)N)c1cn(S(=O)(=O)c2sc(N)nc2C)c2ccccc12 [Example 22, 2-(1-{1-[(2-amino-4-methyl-1,3-thiazol-5-yl)sulfonyl]-1H-indol-3-yl}ethylidene)hydrazinecarboximidamide]"
18,39.1,"CC(=NNC(=N)NCc1ccccc1)c1cn(S(=O)(=O)c2ccccc2)c2ccccc12 [Example 125, N-benzyl-2-{1-[1-(phenylsulfonyl)-1H-indol-3-yl]ethylidene}hydrazinecarboximidamide]"

# Same assay, conditions: test compound dose 1000 nM; [3H]-LSD 3.0 nM; read-out: % Inhibition
row,inhibition at 1 µM [%],Compound
1,61.5,"CCCCC(=NNC(=N)N)c1cn(S(=O)(=O)c2ccc(OC)cc2)c2cc(F)ccc12 [Example 107, 2-(1-{6-fluoro-1-[(4-methoxyphenyl)sulfonyl]-1H-indol-3-yl}pentylidene)hydrazinecarboximidamide]"
2,64.4,"COc1ccc(S(=O)(=O)n2cc(C(C)=NNC(=N)N)c3ccc(F)cc32)cc1 [Example 106, 2-(1-{6-fluoro-1-[(4-methoxyphenyl)sulfonyl]-1H-indol-3-yl}ethylidene)hydrazinecarboximidamide]"
3,56,"Cc1ccc(S(=O)(=O)n2cc(C=NNC3=NCCCN3)c3ccccc32)cc1 [Example 1, 1-[(4-methylphenyl)sulfonyl]-1H-indole-3-carboxaldehyde 1,4,5,6-tetrahydropyrimidin-2-ylhydrazone]"
4,89.2,"COc1ccc(S(=O)(=O)n2cc(C(C)=NNC(=N)N)c3ccc(F)cc32)cc1OC [Example 115, 2-(1-{1-[(3,4-dimethoxyphenyl)sulfonyl]-6-fluoro-1H-indol-3-yl}ethylidene)hydrazinecarboximidamide]"
5,94.6,"CC(=NNC(=N)N)c1cn(S(=O)(=O)c2ccccc2)c2cc(F)ccc12 [Example 112, 2-{1-[6-fluoro-1-(phenylsulfonyl)-1H-indol-3-yl]ethylidene}hydrazinecarboximidamide]"
6,20,"CCCCC(=NNC(=N)N)c1c(-c2ccc(Cl)cc2)n(S(=O)(=O)c2ccccc2)c2ccccc12 [Example 96, 2-{1-[2-(4-chlorophenyl)-1-(phenylsulfonyl)-1H-indol-3-yl]pentylidene}hydrazinecarboximidamide]"
7,53.3,"COc1ccc(S(=O)(=O)n2c(-c3ccc(Cl)cc3)c(C(C)=NNC(=N)N)c3ccccc32)cc1OC [Example 98, 2-(1-{2-(4-chlorophenyl)-1-[(3,4-dimethoxyphenyl)sulfonyl]-1H-indol-3-yl}ethylidene)hydrazinecarboximidamide]"
8,89.8,"CCCCC(=NNC(=N)N)c1cn(S(=O)(=O)c2ccc(OC)c(OC)c2)c2ccccc12 [Example 70, 2-(1-{1-[(3,4-dimethoxyphenyl)sulfonyl]-1H-indol-3-yl}pentylidene)hydrazinecarboximidamide]"
